Test results taken from US10702489B2, “Treatment of nervous system disorders using combinations of RXR agonists and thyroid hormones” (IO Therapeutics, Inc., priority 2015, dated 2020).
“Also recorded” adds a separate entry of the source.

Columns and labels:
[1] = system: C57BL/6 (B6) mice with experimental autoimmune encephalomyelitis (EAE); assay: EAE in C57BL/6 (B6) mice, MOG peptide; assay type: in vivo, mouse; settings: IRX4204 50 μg every other day from day 7 to day 20
Experimental: Mice were also given 200 ng of pertussis toxin in PBS administered by inter-peritoneal (i.p.) injection on the same day as MOG emulsion injection (day 0) and 2 days later (day 2). […] Mice were scored using the following scale: 0—Mice have no disease, 1—Mice have distal limp tail or rear leg weakness (paresis), 1.5—Mice have distal limp tail and rear leg weakness, 2—Mice have complete limp tail and rear leg weakness, 2.5—Mice have complete limp tail and weakness in both rear legs, 3—Mice have complete limp tail and paralysis in both rear legs, 3.5—Mice have complete limp tail, paralysis in both rear legs, and forelimb weakness. Mice receiving a score of 3.5 were immediately euthanized.

[2] = system: mouse oligodendrocyte progenitor cells (OPCs); assay: mouse OPC differentiation with IRX4204 and T3; assay type: cell-based; settings: 5-day treatment; IRX4204 10, 1, 0.1 nM
Experimental: OPCs were derived from plp-EGFP expressing mice.
Therapeutic agents were tested in 96-well plates (6 wells per concentration). […] All media contained 0.1% DMSO. At the end of the 5-day treatment, cells were imaged on Cellomics in two channels and algorithms were used to count nuclei and EGFP+oligodendrocytes.

[3] = system: oligodendrocyte precursor cells (OPCs); assay: oligodendrocyte precursor cell differentiation (PLP-EGFP); assay type: cell-based, mouse
Description: OPCs were generated from a neurosphere culture of E14.5 PLP-EGFP (on C57BL/6J background) mouse brains. […] The EGFP expressing cells were quantified with Cellomics Neuronal Profiling Algorithm.
The EGFP expressing cells in controls and all compounds were quantified with Cellomics Neuronal Profiling Algorithm.

[4] = target: T1, Nurr1/RXR heterodimer (Homo sapiens, UniProt P19793); assay: receptor transactivation assay Nurr1/RXR; assay type: cell-based; settings: COS7 cells
T1 construct: full length Nurr-1 with or without full-length RXRα plasmid; expressed in transfected cells; host or cells: COS7
Description: For PPARγ: CV-1 cells were transfected with 3×(rAOX/DR1)-tk-Luc reporter gene and an expression vector for PPARγ. For FXR:CV-1 cells were transfected with 3×(IBABP/IRI)-tk-Luc reporter gene and vectors for FXR and RXRα. For LXR:CV-1 cells were transfected with 3×(PLTP/LXRE)-tk-Luc reporter gene with vectors for LXRα or LXRβ. For Nurr1: COS7 cells were transfected with 3×NBRE-tk-luc reporter gene and full length Nurr-1 with or without full-length RXRα plasmid. […] Luciferase data were normalized to co-transfected β-gal activity. Luciferase activity was expressed as percent of maximal activity obtained using specific agonists. Rosiglitazone (PPARγ), GW4064 (FXR), T0901317 (LXR).

[5] = system: B6 mice with EAE; assay: EAE dose titration in B6 mice with spleen and CNS analysis; assay type: in vivo, mouse
Experimental: A dose titration experiment was also conducted in EAE mice. EAE was induced in 28 B6 mice with MOG/CFA and PT as above. Mice were scored on day 7 as indicated above and divided into groups by score so means are as equal as possible.
At the completion of the experiment, the vehicle control and 200 μg/day groups were euthanized and spleen and CNS samples obtained.

[6] = system: C57BL/6 (B6) mice with EAE; assay: CNS infiltrating cells in EAE B6 mice; assay type: in vivo, mouse; settings: day 20 after immunization
Experimental: To determine whether a RXR agonist can reduce central nervous system (CNS) infiltrating cells, C57BL/6 (B6) mice were treated as described in Example 6. On day 20 after immunization, mice were sacrificed and perfused with phosphate buffered saline (PBS). Brain and spinal cord tissue was isolated, digested with DNase and LIBERASE DL® (Roche Diagnostics, Indianapolis, Ind.) for 30 minutes, and homogenized through 70 micron nylon mesh filters. Resulting cells were placed over a Percoll gradient to remove myelin. The remaining cells (microglia and CNS infiltrating cells) were counted, stained for molecules of interest, and run on a flow cytometer. Based on the frequencies obtained by FACS of these cell populations, total cell numbers of CNS infiltrating leukocytes expressing CD45, including CD4^+ T cells and CD11c^+ CD11b^+ myeloid dendritic cells (DC), were calculated.

[7] = 200 μg/day, restimulation with PMA/Ionomycin

T1 sequence (P19793 whole entry): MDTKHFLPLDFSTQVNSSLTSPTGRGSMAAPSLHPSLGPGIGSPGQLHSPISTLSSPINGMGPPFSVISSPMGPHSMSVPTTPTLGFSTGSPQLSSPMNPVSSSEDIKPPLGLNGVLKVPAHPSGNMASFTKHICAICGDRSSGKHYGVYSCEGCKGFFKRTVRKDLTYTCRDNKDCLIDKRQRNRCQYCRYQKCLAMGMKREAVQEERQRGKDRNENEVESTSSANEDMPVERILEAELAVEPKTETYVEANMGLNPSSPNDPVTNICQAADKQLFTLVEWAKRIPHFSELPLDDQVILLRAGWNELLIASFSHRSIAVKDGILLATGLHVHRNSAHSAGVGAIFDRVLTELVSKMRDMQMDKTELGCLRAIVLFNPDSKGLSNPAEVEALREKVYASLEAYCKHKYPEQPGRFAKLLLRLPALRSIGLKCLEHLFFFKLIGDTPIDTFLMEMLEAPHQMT
T1 sequence (P43354 whole entry partner): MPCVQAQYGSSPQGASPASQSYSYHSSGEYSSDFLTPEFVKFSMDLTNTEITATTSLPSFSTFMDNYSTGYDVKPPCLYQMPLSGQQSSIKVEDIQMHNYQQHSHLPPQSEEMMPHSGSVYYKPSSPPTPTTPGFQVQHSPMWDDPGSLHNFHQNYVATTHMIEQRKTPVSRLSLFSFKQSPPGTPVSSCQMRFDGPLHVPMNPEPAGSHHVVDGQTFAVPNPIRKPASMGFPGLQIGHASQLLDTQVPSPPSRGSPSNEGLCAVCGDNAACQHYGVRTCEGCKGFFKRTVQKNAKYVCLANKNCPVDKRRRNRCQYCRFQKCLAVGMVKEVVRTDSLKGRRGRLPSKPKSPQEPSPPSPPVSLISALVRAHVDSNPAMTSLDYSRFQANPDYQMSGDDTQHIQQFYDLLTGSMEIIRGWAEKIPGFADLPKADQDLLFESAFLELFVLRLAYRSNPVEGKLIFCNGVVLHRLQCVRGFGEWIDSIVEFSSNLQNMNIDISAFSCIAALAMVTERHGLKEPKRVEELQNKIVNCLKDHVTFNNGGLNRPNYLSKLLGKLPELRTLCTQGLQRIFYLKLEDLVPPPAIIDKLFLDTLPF

Compound: CC(/C=C/[C@@H]1C[C@]1(C)c1ccc2c(c1)C(C)(C)CCC2(C)C)=C\C(=O)O [IRX4204, 3,7-dimethyl-6(S),7(S)-methano,7-[1,1,4,4-tetramethyl-1,2,3,4-tetrahydronaphth-7-yl]2(E),4(E) heptadienoic acid]
- symptoms of EAE (scores of disease severity over time) [1]: significantly reduces the symptoms of EAE
- oligodendrocyte production (EGFP+ oligodendrocytes) [2]: clear dose-responses
- OPC differentiation into oligodendrocytes (EGFP positive cells compared to DMSO) ([3]; all concentrations except the lowest (1^−6 μM)): significant increase; also recorded: dose dependent increase
- total cell number and pyknotic cells ([3]; compared to controls): did not show any differences
- activation of Nurr1/RXR permissive heterodimer [4]: selectively activates
- disease overall (EAE score) ([5]; 50 μg, 100 μg or 200 μg every day from day 8): significantly less disease overall
- CCR6 expression on CD4 T cells, spleen ([5]; 200 μg/day): lowered
- CD4+ CD25hi cells (number), spleen ([5]; 200 μg/day): reduced
- co-expression of IFNg and IL-17A by CD4 T cells in CNS ([5]; 200 μg/day): not significantly different between groups
- frequency of CD4+ CD25hi cells, spleen ([5]; 200 μg/day): not altered
- total number of effector and memory CD4 T cells (CD44), spleen ([5]; 200 μg/day): decreased
- total number of infiltrating CD4 T cells in the CNS ([5]; 200 μg/day): reduced
- total number of recently activated CD4 T cells (CD69 and CD44), spleen ([5]; 200 μg/day): decreased
- IFNγ, CNS infiltrating lymphocytes [5, 7]: significantly reduced
- TNF, CNS infiltrating lymphocytes [5, 7]: significantly reduced
- infiltration of CD4+ cells in to the CNS [6]: significant reduction
- infiltration of CD11c+ CD11b+ cells (myeloid DC) in to the CNS [6]: significant reduction
